Assay results published in paper PMC6200933, “Identification of a Kdn biosynthesis pathway in the haptophyte Prymnesium parvum suggests widespread sialic acid biosynthesis among microalgae” (The Journal of Biological Chemistry, 2018).
Read-outs that look alike come from different tables or passages of the source.

Legend:
[1] = system: T1, Kdn-9-P synthetase (CAMPEP_0191217894); assay: BioMol Green colorimetric phosphate-release assay, Michaelis-Menten; format: biochemical, Prymnesium parvum; details: 50 mM HEPES pH 7.5, 2 mM MgCl2, 25 °C
T1 construct: no truncation stated

[2] = molecular target: T2, B. thetaiotaomicron VPI-5482 Kdn-9-P phosphatase (Bacteroides thetaiotaomicron, UniProt Q8A712); assay: […] NMR coupled assay, Kdn-9-P generated in situ by P. parvum Kdn-9-P synthetase; format: biochemical; details: coupled with Kdn-9-P synthetase, 10 mM PEP, 8 mM Man-6-P, 2 mM MgCl2, 50 mM HEPES pD 7.5, 1 h
T2 construct: gene BT_1713
T2 sequence (Q8A712 whole entry, change not shown): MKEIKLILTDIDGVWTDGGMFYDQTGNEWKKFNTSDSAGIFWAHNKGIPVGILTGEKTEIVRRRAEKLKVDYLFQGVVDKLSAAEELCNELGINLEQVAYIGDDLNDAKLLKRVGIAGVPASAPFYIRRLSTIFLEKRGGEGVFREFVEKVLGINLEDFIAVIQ

Structure (SMILES): O=P(O)(O)OC[C@H]1OC(O)[C@@H](O)[C@@H](O)[C@@H]1O (stereo partly drawn) [Man-6-P]
- Km ([1]; 100 μM PEP, read-out: (Man-6-P)Km): 63.6 ± 10.5 µM

Structure (SMILES): O=C(O)C1(O)C[C@H](O)[C@@H](O)[C@H]([C@H](O)[C@H](O)COP(=O)(O)O)O1 (stereo partly drawn) [Kdn-9-P]
- 31P NMR coupled assay, Kdn-9-P generated in situ by P. parvum Kdn-9-P synthetase [2]: is accepted by B. thetaiotaomicron VPI-5482 Kdn-9-P phosphatase

Structure (SMILES): C=C(OP(=O)(O)O)C(=O)O [PEP]
- Km ([1]; 100 μM Man-6-P, read-out: (PEP)Km): 18.3 ± 1.8 µM
